Entries after “also recorded” stand apart in the source; their conditions may differ.

The subject of experiment [1] is C-terminal SMAD2 phosphorylation (Ser465/467) and JUN phosphorylation. Kind of experiment: Western blotting for signaling crosstalk between Nodal and JNK pathways. Type of experiment: cell-based, human. The settings on record: 15 minutes and 1 hour after initiating differentiation. The method, then:
(§1) Cell pellets were quickly snap frozen in liquid nitrogen and lysated in lysis buffer (Cell Signaling Technology, 9803) with proteinase/phosphatase inhibitors (Cell Signaling Technology, 5872) and 1 mm PMSF (MP Biomedicals, ICN19538105). Proteins were pre-cleared by centrifugation at 14,000 g 4° C. for 10 minutes. Protein concentration was determined by Bradford assay (Bio-Rad, 500-0202). Equal amounts of protein were loaded into Bis-Tris 10% gel (Novex, NP0301BOX) and transferred to nitrocellulose membranes (Novex, LC2001). Membranes were blocked with 5% milk (for non-phosphorylated proteins) or 5% BSA (for phosphorylated proteins). Primary antibody was incubated overnight at 4° C. Membranes were washed with TBST 3 times for 10 minutes each and incubated with secondary antibody for 1 hour at R.T. Membrane were washed with TBST 3 times for 10 minutes each. ECL western blotting detection reagents (Amersham, RPN2236 and Thermo Fisher Scientific, 32106) were used to visualize the protein bands.
For orientation: In western blotting, separated proteins are transferred to a membrane and probed.

Experiment [2] relates to HUES8 SOX17GFP/+ cells. Kind of experiment: Definitive endoderm (DE) differentiation, flow cytometry of SOX17-GFP reporter. Format: cell-based, human. The settings on record: for formation of SOX17+ endoderm cells: Activin A and CHIR-99021 treatment, efficiency sensitive to dosages. The procedure: (§2) Human ES or iPS cells were cultured in E8 medium and routinely passed by EDTA. When cells reach to 80-90% confluences, cells were treated with TrpLE Select and get single cell for passaging. Typically, 0.15 millions human ES or iPS cells were plated in one well of the six-well plates with ROCK inhibitor 10 uM in 2 ML E8 media. For the H1 line, it was typically plated 0.1 million cells to accommodate the higher proliferation rate. Twenty-four hours later, cells were washed with PBS once and add Day0 media (Advanced RPMI (Thermo Fisher Scientific, 12633012) with penicillin/streptomycin (Thermo Fisher Scientific, 15070063), GlutaMAX (Thermo Fisher Scientific, 35050079), 0.003% BSA (Thermo Fisher Scientific, 15260037), […] CHIR-99021 (Tocris, 4423) and 100 ng/ml Activin A (PeperoTech, 12014E)). Over the next 2 days, cells were changed to Day2 media (Advanced RPMI with penicillin/streptomycin, GlutaMAX, 0.2% FBS and 100 ng/ml Activin A). […] JNK inhibitor JNK-IN-8 (Selleckchem, S4901) was used during differentiation when indicated. Routinely, around 60-80% SOX17+ cells were obtained in 3 days.
Cells were dissociated using TrypLE Select and resuspended in FACS buffer (5% FBS, 5 mM EDTA in PBS). First, cells were stained with surface antibody (CXCR4-APC) with LIVE/DEAD violet dye (Molecular Probe, L34955, 1:1,000) for 30 minutes at 4° C. After washing, […] After washing with FACS buffer, cells were fixed and permeabilized in 1× fixation/permeabilization buffer (eBioscience, 00-5523-00) for 30 minutes at 4° C. After fixation and permeabilization, cells were stained with intracellular conjugated antibody (SOX17-PE, GATA6-PE, GATA4-Alexa-647) in permeabilization buffer (eBioscience, 00-5523-00) for 30 minutes at 4° C. After washing with permeabilization buffer, cells were resuspended in FACS buffer, and samples were analyzed using BD LSRfortessa or BD LSRII. Flow cytometry analysis and figures were generated in Flowjo 10.
A general note: In flow cytometry, cells or beads pass a laser one at a time.

Experiment [3] deals with H1 cell line. Kind of experiment: Definitive endoderm (DE) differentiation, flow cytometry of SOX17. Format: cell-based, human. The method, then:
as §2
(§3) Cells were dissociated using TrypLE Select and resuspended in FACS buffer (5% FBS, 5 mM EDTA in PBS). […] After washing with permeabilization buffer, cells were resuspended in FACS buffer, and samples were analyzed using BD LSRfortessa or BD LSRII. […]

For experiment [4], the system named is HUES6 ES cells, and BJ and CV iPS cells. Kind of experiment: Definitive endoderm differentiation in further ES and iPS cell lines, flow cytometry of SOX17. Type of experiment: cell-based, human. The settings on record: without inhibitor efficiency 60-80%. The method, then:
as §2, §3

In experiment [5] the test system is DE cells differentiated from human ES cells. Kind of experiment: Endoderm differentiation in high or low Activin A condition, flow cytometry (CXCR4/SOX17, GATA6/GATA4) and RT-qPCR. Format: cell-based. The settings on record: either high or low Activin A condition. The method, then:
Human ES or iPS cells were cultured in E8 medium and routinely passed by EDTA. When cells reach to 80-90% confluences, cells were treated with TrpLE Select and get single cell for passaging. Typically, 0.15 millions human ES or iPS cells were plated in one well of the six-well plates with ROCK inhibitor 10 uM in 2 ML E8 media. For the H1 line, it was typically plated 0.1 million cells to accommodate the higher proliferation rate. […]
as §3
Cell pellets were lysed in TRIzol (Thermo Fisher Scientific, 15596018). […] Quantitative real-time PCR was performed in triplicate using ABsolute Blue QPCR SYBR Green Mix with low ROX (Thermo Scientific, #AB4322B) on the ABI PRISM® 7500 Real Time PCR System (Applied Biosystems) using the following protocol: 15 minutes at 95° C. followed by 40 cycles of 15 seconds at 95° C., 30 seconds at 58° C., and 30 seconds at 72° C. The signal was detected at 72° C.

Experiment [6] deals with JUN phosphorylation. Kind of experiment: Western blot of JUN phosphorylation in DE cells. Format: cell-based, human. The procedure:
as §1

The test system of experiment [7] is SOX17 and GATA6 enhancers. Kind of experiment: ChIP-qPCR of SMAD2/3 and JUN binding at the SOX17 and GATA6 enhancers. Format: cell-based, human. To be noted: DE cells at Day 2. The method, then: Definitive endoderm cells at Day 2 were collected for chromatin immunoprecipitation. Cells were cross-linked with 1% formaldehyde (Sigma, F1635) at 37° C. for 15 min and quenched with 0.125 M glycine for 5 min at room temperature. ChIP was performed as previously described 52. Samples were incubated with […] of antibody bound to […] Dynabeads protein G (Thermo Fisher Scientific, 1004D), then incubated overnight at 4° C. 2% pre-cleared chromatin prior to primary antibody addition was kept as input DNA. Magnetic beads were washed and chromatin was eluted, and reverse cross-linked ChIP DNA was dissolved in 10 mM Tris pH 8.0 buffer for further analysis. For ChIP-qPCR, immunoprecipitated DNA was analyzed by qPCR, and the amplification product was expressed as percentage of the 2% input.
(In general: Real-time PCR tracks product formation cycle by cycle.)

The subject of experiment [8] is NKX6.1 and PDX1 expressing pancreatic progenitor cells. Kind of experiment: Pancreatic progenitor differentiation after transient JNK inhibition during DE differentiation. Format: cell-based, human. The settings on record: flow cytometry and immunostaining. An excerpt:
(§4) An improved protocol suitable for endoderm derivative lineage differentiation was developed. The improved protocol dispensed with the use of serum and inhibited JNK on the first day of definitive endoderm differentiation (FIG. 13A).

Experiment [9] has as its system NKX2.1 expressing lung progenitor cells. Kind of experiment: Lung progenitor differentiation after transient JNK inhibition during DE differentiation. The settings on record: flow cytometry. Type of experiment: cell-based, human.
Excerpt: as §4

The subject of experiment [10] is definitive endoderm (SOX17 and CXCR4 expression). Kind of experiment: Serum-free DE differentiation with JNK inhibition on the first day. Type of experiment: cell-based, human. The settings on record: one day of JNK inhibition, no serum.
Excerpt: as §4

As for `NC(=O)c1ccc(-c2nc(-c3ccc4c(c3)OCO4)c(-c3ccccn3)[nH]2)cc1` [SB431542], in experiment [1], the “C-terminal SMAD2 phosphorylation (at Ser465/467)” value (“C-terminal SMAD2 phosphorylation” below) is “blocked” and the “JUN phosphorylation (Western blot)” value was “did not affect”.

`Cc1c[nH]c(-c2cnc(NCCNc3ccc(C#N)cn3)nc2-c2ccc(Cl)cc2Cl)n1` [CHIR-99021, 6-(2-(4-(2,4-dichlorophenyl)-5-(4-methyl-1H-imidazol-2-yl)pyrimidin-2-ylamino)ethylamino)nicotinonitrile]: the “formation of SOX17+ endoderm cells” value in experiment [2] was “required”. The “outcome of prolonged WNT activation” value in [2] (prolonged CHIR-99021 treatment) is given as “formation of CXCR4+SOX17− cells”.

Take `Cc1cc(NC(=O)c2cccc(NC(=O)/C=C/CN(C)C)c2)ccc1Nc1nccc(-c2cccnc2)n1` [JNK-IN-8]: the “DE differentiation (SOX17+ cells)” value in experiment [3] (1 μm JNK-IN-8, 3 days, H1, DMSO control ~66%) is ~96%. The “effect on DE differentiation at Day 2 versus Day 3” value in experiment [3] (1 μm JNK-IN-8, H1 and HUES8-SOX17GFP) is reported as “stronger at Day 2”. Moreover, the “DE differentiation (SOX17GFP+ cells)” value in experiment [2] (1 μm JNK-IN-8, 3 days, HUES8-SOX17GFP, DMSO control ~79%) is reported as ~98%. Besides, the “requirement for Activin A in Activin A dose titration” value in experiment [2] (HUES8 SOX17GFP/+ cells) is listed as “did not omit the requirement for Activin A”. For the same molecule, the “SOX17+ cells formed” value in experiment [2] (JNK-IN-8 with 20 ng/ml Activin A, HUES8 SOX17GFP/+ cells) was ~95%. In experiment [4], the endoderm differentiation efficiency result is reported as “significantly improved”. Moreover, in [5], the “efficiency of endoderm differentiation based on flow cytometry” value is “greater than 90%” and the “levels of endoderm gene expression from RT-qPCR” value is given as “increased”. The “phosphorylation of JUN (Western blot)” value in experiment [6] (JNK-IN-8 1 μm, H1-derived DE cells at day 3) is given as “undetectable; also recorded: inhibition of JUN phosphorylation”. The “total JUN level (Western blot)” value in experiment [6] (JNK-IN-8 treated cells) is “down-regulated”. Moreover, in experiment [1], the “C-terminal SMAD2 phosphorylation” value was “did not change” and the “JUN phosphorylation (Western blot)” value is listed as “inhibited”. Further, in experiment [7], the “binding of JUN to the SOX17 and GATA6 enhancers” value is on record as “diminished”; the “binding of SMAD2/3 to the SOX17 and GATA6 enhancers” value is on record as “enhanced”. Further, the “number of NKX6.1 and PDX1 expressing pancreatic progenitor cells” value in experiment [8] is on record as “significantly increased”. In experiment [9], the “number of NKX2.1 expressing lung progenitor cells” value is on record as “significantly increased”. For the same molecule, in experiment [10], the “induction of definitive endoderm (SOX17 and CXCR4 expression)” value is listed as “sufficient to induce differentiation of definitive endoderm”.

B1: Activin A: TGF-β superfamily member that mimics the activity of Nodal (protein, UniProt P08476 311-426, looked up)
Inhibin beta A chain: GLECDGKVNICCKKQFFVSFKDIGWNDWIIAPSGYHANYCEGECPSHIAGTSGSSLSFHSTVINHYRMRGHSPFANLKSCCVPTKLRPMSMLYYDDGQNIIKKDIQNMIVEECGCS
modifications: Inhibin beta A chain
B1: in experiment [2], the “formation of SOX17+ endoderm cells” value is given as “required”. Also, the “C-terminal SMAD2 phosphorylation” value in experiment [1] is “induces”.

The values above are taken from patent publication US20190224251A1, “METHODS OF DIFFERENTIATING STEM CELLS INTO ENDODERM” (MEMORIAL SLOAN-KETTERING CANCER CENTER, priority 2016, published 2019).
